Measured values from ChEMBL document CHEMBL3046424, “Growth inhibitory effects on fall armyworm Spodoptera frugiperda of some limonoids isolated from Cedrela spp. (Meliaceae)” (2000).
Converted amounts (≈) assume the structure as drawn.

Experiments:
Type in all cases: functional
Spodoptera frugiperda [1] = assay: Insecticidal activity against Spodoptera frugiperda (fall armyworm) assessed as mean length at 25 ug/ml in artificial diet measured after 7 days (reference value: 28 +/- 4.1 mg)
Spodoptera frugiperda [2] = assay: Insecticidal activity against Spodoptera frugiperda (fall armyworm) assessed as mean weight gain at 5 ug/ml in artificial diet measured after 7 days (reference value: 469.5 +/- 6.59 mg)
Spodoptera frugiperda [3] = assay: Insecticidal activity against Spodoptera frugiperda (fall armyworm) assessed as mean emergence at 25 ug/ml in artificial diet (reference value: 83.3 %)
Spodoptera frugiperda [4] = assay: Insecticidal activity against Spodoptera frugiperda (fall armyworm) assessed as mean emergence at 52 ug/ml in artificial diet (reference value: 83.3 %)
Spodoptera frugiperda [5] = assay: Insecticidal activity against Spodoptera frugiperda (fall armyworm) assessed as mean pupation at 25 ug/ml in artificial diet (reference value: 87.5 %)
Spodoptera frugiperda [6] = assay: Insecticidal activity against Spodoptera frugiperda (fall armyworm) assessed as mean pupation at 52 ug/ml in artificial diet (reference value: 87.5 %)
Spodoptera frugiperda [7] = assay: Insecticidal activity against Spodoptera frugiperda (fall armyworm) assessed as mean emergence days at 5 ug/ml in artificial diet (reference value: 33 days)
Spodoptera frugiperda [8] = assay: Insecticidal activity against Spodoptera frugiperda (fall armyworm) assessed as mean emergence days at 25 ug/ml in artificial diet (reference value: 33 days)
Spodoptera frugiperda [9] = assay: Insecticidal activity against Spodoptera frugiperda (fall armyworm) assessed as mean emergence days at 52 ug/ml in artificial diet (reference value: 33 days)
Spodoptera frugiperda [10] = assay: Insecticidal activity against Spodoptera frugiperda (fall armyworm) assessed as mean emergence at 5 ug/ml in artificial diet (reference value: 83.3 %)
Spodoptera frugiperda [11] = assay: Insecticidal activity against Spodoptera frugiperda (fall armyworm) assessed as mean time to pupation at 5 ug/ml in artificial diet (reference value: 22 days)
Spodoptera frugiperda [12] = assay: Insecticidal activity against Spodoptera frugiperda (fall armyworm) assessed as mean time to pupation at 25 ug/ml in artificial diet (reference value: 22 days)
Spodoptera frugiperda [13] = assay: Insecticidal activity against Spodoptera frugiperda (fall armyworm) assessed as mean time to pupation at 52 ug/ml in artificial diet (reference value: 22 days)
Spodoptera frugiperda [14] = assay: Insecticidal activity against Spodoptera frugiperda (fall armyworm) assessed as mean weight of pupae at 5 ug/ml in artificial diet (reference value: 281.5 +/- 10.3 mg)
Spodoptera frugiperda [15] = assay: Insecticidal activity against Spodoptera frugiperda (fall armyworm) assessed as mean weight of pupae at 25 ug/ml in artificial diet (reference value: 281.5 +/- 10.3 mg)
Spodoptera frugiperda [16] = assay: Insecticidal activity against Spodoptera frugiperda (fall armyworm) assessed as mean weight of pupae at 52 ug/ml in artificial diet (reference value: 281.5 +/- 10.3 mg)
Spodoptera frugiperda [17] = assay: Insecticidal activity against Spodoptera frugiperda (fall armyworm) assessed as mean pupation at 5 ug/ml in artificial diet (reference value: 87.5 %)
Spodoptera frugiperda [18] = assay: Insecticidal activity against Spodoptera frugiperda (fall armyworm) assessed as mean length at 52 ug/ml in artificial diet measured after 7 days (reference value: 28 +/- 4.1 mg)
Spodoptera frugiperda [19] = assay: Insecticidal activity against Spodoptera frugiperda (fall armyworm) assessed as mean length at 5 ug/ml in artificial diet measured after 7 days (reference value: 28 +/- 4.1 mg)
Spodoptera frugiperda [20] = assay: Insecticidal activity against Spodoptera frugiperda (fall armyworm) assessed as mean weight gain at 25 ug/ml in artificial diet measured after 7 days (reference value: 469.5 +/- 6.59 mg)
Spodoptera frugiperda [21] = assay: Insecticidal activity against Spodoptera frugiperda (fall armyworm) assessed as mean weight gain at 52 ug/ml in artificial diet measured after 7 days (reference value: 469.5 +/- 6.59 mg)
Spodoptera frugiperda [22] = assay: Insecticidal activity against Spodoptera frugiperda (fall armyworm) assessed as mean weight gain at 52 ug/ml in artificial diet measured after 7 days (reference value: 75.5 +/- 8.24 mg)
Spodoptera frugiperda [23] = assay: Insecticidal activity against Spodoptera frugiperda (fall armyworm) assessed as mean weight gain at 25 ug/ml in artificial diet measured after 7 days (reference value: 75.5 +/- 8.24 mg)
Spodoptera frugiperda [24] = assay: Insecticidal activity against Spodoptera frugiperda (fall armyworm) assessed as mean weight gain at 5 ug/ml in artificial diet measured after 7 days (reference value: 75.5 +/- 8.24 mg)
Spodoptera frugiperda [25] = assay: Insecticidal activity against Spodoptera frugiperda (fall armyworm) assessed as mean length at 52 ug/ml in artificial diet measured after 7 days (reference value: 0.95 +/- 0.2 cm)
Spodoptera frugiperda [26] = assay: Insecticidal activity against Spodoptera frugiperda (fall armyworm) assessed as mean length at 70 ug/ml in artificial diet measured after 7 days (reference value: 0.95 +/- 0.2 cm)
Spodoptera frugiperda [27] = assay: Insecticidal activity against Spodoptera frugiperda (fall armyworm) assessed as mortality at 5 ug/ml in artificial diet measured after 7 days (reference value: 8.33%); conditions: 168 h
Spodoptera frugiperda [28] = assay: Insecticidal activity against Spodoptera frugiperda (fall armyworm) assessed as mortality at 70 ug/ml in artificial diet measured after 7 days (reference value: 8.33%); conditions: 168 h
Spodoptera frugiperda [29] = assay: Insecticidal activity against Spodoptera frugiperda (fall armyworm) assessed as mortality at 52 ug/ml in artificial diet measured after 7 days (reference value: 8.33%); conditions: 168 h
Spodoptera frugiperda [30] = assay: Insecticidal activity against Spodoptera frugiperda (fall armyworm) assessed as mortality at 25 ug/ml in artificial diet measured after 7 days (reference value: 8.33%); conditions: 168 h
Spodoptera frugiperda [31] = assay: Insecticidal activity against Spodoptera frugiperda (fall armyworm) assessed as mean length at 25 ug/ml in artificial diet measured after 7 days (reference value: 0.95 +/- 0.2 cm)
Spodoptera frugiperda [32] = assay: Insecticidal activity against Spodoptera frugiperda (fall armyworm) assessed as mean length at 5 ug/ml in artificial diet measured after 7 days (reference value: 0.95 +/- 0.2 cm)
Spodoptera frugiperda [33] = assay: Insecticidal activity against Spodoptera frugiperda (fall armyworm) assessed as mean weight gain at 70 ug/ml in artificial diet measured after 7 days (reference value: 75.5 +/- 8.24 mg)
Spodoptera frugiperda [34] = assay: Insecticidal activity against Spodoptera frugiperda (fall armyworm) assessed as mortality measured after 7 days; conditions: 168 h

SMILES | Activity (Spodoptera frugiperda [1]) [mm] | Activity (Spodoptera frugiperda [2]) [mg] | Activity (Spodoptera frugiperda [3]) [%] | Activity (Spodoptera frugiperda [4]) [%] | Activity (Spodoptera frugiperda [5]) [%] | Activity (Spodoptera frugiperda [6]) [%] | Time (Spodoptera frugiperda [7]) [days] | Time (Spodoptera frugiperda [8]) [days] | Activity (Spodoptera frugiperda [10]) [%] | Time (Spodoptera frugiperda [11]) [days] | Time (Spodoptera frugiperda [12]) [days] | Time (Spodoptera frugiperda [13]) [days] | Activity (Spodoptera frugiperda [14]) [mg] | Activity (Spodoptera frugiperda [15]) [mg] | Activity (Spodoptera frugiperda [16]) [mg] | Activity (Spodoptera frugiperda [17]) [%] | Activity (Spodoptera frugiperda [18]) [mm] | Activity (Spodoptera frugiperda [19]) [mm] | Activity (Spodoptera frugiperda [20]) [mg] | Activity (Spodoptera frugiperda [21]) [mg] | other results
CCC(=O)[C@@H]1C(=O)O[C@@]2(C=O)[C@H]1[C@](C)([C@@H](OC(C)=O)c1ccoc1)CC[C@@H]2[C@@]1(C)C(=O)C[C@@H]2O[C@@H](C(=O)OC)[C@H]1C2(C)C [CEDRELANOLIDE] | 6.7 | 55.7 | 62.5 | 50 | 66.7 | 62.5 | 33 | 33 | 79.2 | 22 | 21.5 | 22.5 | 221.9 | 191.8 | 123.9 | 79.2 | 5.3 | 8.7 | 41.6 | 40.1 | Time (Spodoptera frugiperda [9]): 33 days; Activity (Spodoptera frugiperda [22]): 15.4 mg; Activity (Spodoptera frugiperda [23]): 20.8 mg; Activity (Spodoptera frugiperda [24]): 27.85 mg; Activity (Spodoptera frugiperda [25]): 0.7 cm; Activity (Spodoptera frugiperda [26]): 0.51 cm; mortality at 5 µg/mL (Spodoptera frugiperda [27]): 15%; mortality at 70 µg/mL (Spodoptera frugiperda [28]): 38%; mortality at 52 µg/mL (Spodoptera frugiperda [29]): 28%; mortality at 25 µg/mL (Spodoptera frugiperda [30]): 21%; Activity (Spodoptera frugiperda [31]): 0.95 cm; Activity (Spodoptera frugiperda [32]): 1.2 cm; Activity (Spodoptera frugiperda [33]): 9.1 mg
CC(=O)O[C@@H]1C[C@H](O)[C@@]23CO[C@@H](O)[C@]1(C)[C@@H]2C[C@@H](O)[C@]1(C)[C@@H]3C(=O)[C@H](OC(C)=O)[C@@]2(C)[C@H](c3ccoc3)C[C@H]3O[C@]321 [TOOSENDANIN] | 6.1 | 21.5 | 4.17 | 0 | 4.17 | 4.17 | 36 | 36 | 16.7 | 23.5 | 24 | 24 | 95 | 45.1 | 38 | 17.9 | 2.8 | 7 | 17 | 11.2 | Activity (Spodoptera frugiperda [22]): 1 mg; Activity (Spodoptera frugiperda [23]): 2.3 mg; Activity (Spodoptera frugiperda [24]): 5.1 mg; Activity (Spodoptera frugiperda [25]): 0.57 cm; mortality at 5 µg/mL (Spodoptera frugiperda [27]): 40%; LC50 (Spodoptera frugiperda [34]): 7 mg/L (≈ 12.2 µM); mortality at 52 µg/mL (Spodoptera frugiperda [29]): 89%; mortality at 25 µg/mL (Spodoptera frugiperda [30]): 70%; Activity (Spodoptera frugiperda [31]): 0.77 cm; Activity (Spodoptera frugiperda [32]): 0.98 cm
